# How the values were obtained:
# [1] = test system: learning ability of rats in a shuttle chamber; assay: Active avoidance learning in a shuttle chamber, rats; type: in vivo, rat; details: rats, hypodermally 100 mg/kg
# Excerpt: (§1) In these experiments rats are taught to avoid an electric shock by escaping into a next chamber communicating with the first chamber by means of a special opening--a door. An electric current is applied to the chamber door consisting of metal plates. A conditional irritator is a light signal together with a sound click. The learning series consisted of 50 combinations. The number of combinations necessary for the animal's learning to escape into another chamber in response to the conditional signal was determined. Five correct responses out of 6 where regarded as the proof of stability of the acquired knowledge and were denoted as a "learning criterion". After 7 days the educational procedure was repeated, and again the number of combinations necessary to acquire the "learning criterion" was determined. In the case of difference between the first and second readings the percentage of retention of the acquired knowledge was calculated.
# (§2) In this experiment the effect of the preparation according to the present invention and prior art preparations was separately evaluated for the purpose of comparison on well-learning and on specially selected poorly learning rats. […] To the poorly learning rats the animals were assigned which reached no "learning criterion" in the teaching series of 50 combinations, or, in other words, a stable knowledge of active avoidance was not worked out in them. […] The preparation according to the present invention and the prior art comparison preparations were administered before the first teaching series or thereafter.
# (§3) Also studied were the effects produced upon a single and repeated administration of the preparation according to the present invention for 14 days.
# [2] = test system: learning ability of rats preliminarily sorted out for poor learning ability; assay: Active avoidance learning in a shuttle chamber, rats sorted out for poor learning ability; type: in vivo, rat; details: poorly learning rats, hypodermally 100 mg/kg
# Excerpt: as §1, §2, §3
# [3] = test system: rabbit's brain hemispheres; assay: Amplitude of induced potential in brain hemispheres (acoustic irritation); type: in vivo; details: rabbits
# Protocol: (§4) In the third series of experiments the effect of the preparation according to the present invention on the functional brain asymmetry was studied. The experiments were carried out on rabbits with electrodes implanted in the brain. The electrodes under nembutal narcosis (40 mg/kg) were implanted strictly symmetrically into the bearing zone of the temporal cortex of the right and left hemispheres on its lateral surface, whereas the indifferent electrode was secured to the nasal bones of a rabbit's skull. The acoustic irritation was applied through earphones. As the acoustic irritation a sound click caused by a square-shaped pulse from an electronic stimulator with a frequency of 0.1-0.2 Hz was used; the click intensity was adjusted within the range of from 5 to 80 Db. The amplification of the taken-off biopotentials was effected on an electroencephalograph; the induced potentials were obtained by means of an analyzer. 100 experiments on 20 animals were thus conducted; the interval between experiments on one animal was 7 days. The amplitude and form of the induced potential were determined. The asymmetry factor (Kas) was calculated by the formula: [formula] Ar --amplitude of the induced potential of the […] hemisphere, μV;
# (§5) A1 --amplitude of the induced potential of the left hemisphere.
# (§6) The test preparations were administered hypodermally in the form of 0.5-1.5% aqueous solutions 20 minutes before the beginning of the measurements.
# [4] = test system: cerebral cortex of rabbits; assay: Asymmetry factor by induced potential in the hearing zone of the cerebral cortex; type: in vivo, rabbit
# Protocol: as §4, §5, §6
# [5] = test system: learning ability of mice in a shuttle chamber; assay: Learning ability of mice in a shuttle chamber; type: in vivo, mouse; details: mice
# patients = assay: Clinical study on patients with memory disorders, compared to pyracetam; type: in vivo, human
# Excerpt: The preparation according to the present invention was studied in clinics on 130 patients.
# As regards diagnosis and sex the patients were distributed as follows:
# skull-brain traumata with memory disturbance: 75 patients (52 men and 23 women)
# Alzheimer's disease: 15 patients (3 men and 12 women)
# Pick's disease: 5 patients (5 men)
# Senile dementia: 15 patients (4 men and 11 women)
# Vascular dementia (cerabral atero-sclerosis, hypertonic disease): 20 patients (7 men and 13 women)
# In the group of patients with skull-brain trauma the patient's age varied from 17 to 60 years, in the other patients--from 52 to 75 years.
# In addition to clinico-psychopathological methods of investigation, all the patients were subjected to neuropsychological studies during which specific tasks were offered them to solve. In doing so, the response was assessed against a 4-points scale: 3--maximally pronounced disorder, full or substantially full incapability to deal with the task set; 2--a medium degree of manifestation of the deficiency, solving the task with the experimentator's assistance; 1--minor errors, independent correction of mistakes; 0--lack of disturbances.
# The treatment course duration is 30-60 days. In the case of an acute skull-brain trauma (65 patients) the treatment started 15-20 days after the moment of trauma and lasted for 20-30 days.
# It is known that the function of memory has a complex brain organization and different zones of brains take part in its regulation. During the studies a multi-faceted assessment of the memory function was carried out; there were assessed: (1) mnestic component of the environmental orientation of a patient; (2) involuntary memory for current events; (3) intentional exo-experimental memory; (4) volume and soundness of audio-speaking memory; (5) volume and soundness of visual memory; (6) operative memory; (7) memory for knowledge acquired before the disease.
# [6] = hypodermally 10 mg/kg, 12 day (retention)
# [7] = hypodermally 30 mg/kg, 12 day (retention)
# [8] = hypodermally 100 mg/kg, 1st day
# [9] = hypodermally 100 mg/kg, 12 day (retention)
# [10] = per os 30 mg/kg, 12 day (retention)
# [11] = per os 100 mg/kg, 12 day (retention)
structure (smiles),measurement,setting,value
"NC(=O)CN1CCCC1=O [Pyracetam, pyracetam]","Number of combinations to reach the ""learning criterion"" in II teaching series (after 7 days)",[1],4.7 ± 0.9
same,"Number of combinations to reach the ""learning criterion"" in the I teaching series",[1],20.8 ± 1.2
same,Number of non-taught animals in the group,[1],1/20
same,Percentage knowledge retention,[1],70%
same,% of knowledge retention,[2],26%
same,"Number of combinations till appearance of ""learning criterion"", I teaching",[2],30.3 ± 2.5
same,"Number of combinations till appearance of ""learning criterion"", II-checking of retention of knowledge",[2],22.4 ± 2.1
same,Number of untaught animals in the group,[2],9/20
same,amplitude of induced potentials (in words),[3],failed to influence all these characteristics
same,asymmetry factor (in words),[4],failed to influence all these characteristics
same,"Asymmetry factor, Preparation","[4]; hypodermally 100 mg/kg, control 0.19 ± 0.03",0.213 ± 0.05
same,learning and memory (in words),[5]; hypodermally,"improves learning, but not memory"
same,"% of avoidance reactions, group I","[5]; hypodermally 10 mg/kg, 1st day",23%
same,"% of avoidance reactions, group II","[5]; hypodermally 10 mg/kg, 1st day",33%
same,"% of avoidance reactions, group III","[5]; hypodermally 10 mg/kg, 1st day",48%
same,"% of avoidance reactions, group IV","[5]; hypodermally 10 mg/kg, 1st day",52%
same,"% of avoidance reactions, group V","[5]; hypodermally 10 mg/kg, 1st day",60%
same,"% of avoidance reactions, group VI","[5]; hypodermally 10 mg/kg, 1st day",61%
same,"% of avoidance reactions, group I",[5]; [6],60%
same,"% of avoidance reactions, group II",[5]; [6],78%
same,"% of avoidance reactions, group III",[5]; [6],80%
same,"% of avoidance reactions, group IV",[5]; [6],79%
same,"% of avoidance reactions, group V",[5]; [6],80%
same,"% of avoidance reactions, group VI",[5]; [6],78%
same,"% of avoidance reactions, group I","[5]; hypodermally 30 mg/kg, 1st day",20%
same,"% of avoidance reactions, group II","[5]; hypodermally 30 mg/kg, 1st day",32%
same,"% of avoidance reactions, group III","[5]; hypodermally 30 mg/kg, 1st day",55%
same,"% of avoidance reactions, group IV","[5]; hypodermally 30 mg/kg, 1st day",67%
same,"% of avoidance reactions, group V","[5]; hypodermally 30 mg/kg, 1st day",70%
same,"% of avoidance reactions, group VI","[5]; hypodermally 30 mg/kg, 1st day",75%
same,"% of avoidance reactions, group I",[5]; [7],60%
same,"% of avoidance reactions, group II",[5]; [7],80%
same,"% of avoidance reactions, group III",[5]; [7],82%
same,"% of avoidance reactions, group IV",[5]; [7],81%
same,"% of avoidance reactions, group V",[5]; [7],84%
same,"% of avoidance reactions, group VI",[5]; [7],88%
same,"% of avoidance reactions, group I",[5]; [8],24%
same,"% of avoidance reactions, group II",[5]; [8],41%
same,"% of avoidance reactions, group III",[5]; [8],55%
same,"% of avoidance reactions, group IV",[5]; [8],70%
same,"% of avoidance reactions, group V",[5]; [8],72%
same,"% of avoidance reactions, group VI",[5]; [8],74%
same,"% of avoidance reactions, group I",[5]; [9],62%
same,"% of avoidance reactions, group II",[5]; [9],90%
same,"% of avoidance reactions, group III",[5]; [9],92%
same,"% of avoidance reactions, group IV",[5]; [9],90%
same,"% of avoidance reactions, group V",[5]; [9],90%
same,"% of avoidance reactions, group VI",[5]; [9],92%
same,effect upon per os administration (in words),[5]; per os,the effect is noticeably reduced
same,"% of avoidance reactions, group I","[5]; per os 30 mg/kg, 1st day",11%
same,"% of avoidance reactions, group II","[5]; per os 30 mg/kg, 1st day",17%
same,"% of avoidance reactions, group III","[5]; per os 30 mg/kg, 1st day",31%
same,"% of avoidance reactions, group IV","[5]; per os 30 mg/kg, 1st day",32%
same,"% of avoidance reactions, group V","[5]; per os 30 mg/kg, 1st day",33%
same,"% of avoidance reactions, group VI","[5]; per os 30 mg/kg, 1st day",40%
same,"% of avoidance reactions, group I",[5]; [10],48%
same,"% of avoidance reactions, group II",[5]; [10],70%
same,"% of avoidance reactions, group III",[5]; [10],71%
same,"% of avoidance reactions, group IV",[5]; [10],78%
same,"% of avoidance reactions, group V",[5]; [10],78%
same,"% of avoidance reactions, group VI",[5]; [10],81%
same,"% of avoidance reactions, group I","[5]; per os 100 mg/kg, 1st day",21%
same,"% of avoidance reactions, group II","[5]; per os 100 mg/kg, 1st day",22%
same,"% of avoidance reactions, group III","[5]; per os 100 mg/kg, 1st day",32%
same,"% of avoidance reactions, group IV","[5]; per os 100 mg/kg, 1st day",42%
same,"% of avoidance reactions, group V","[5]; per os 100 mg/kg, 1st day",43%
same,"% of avoidance reactions, group VI","[5]; per os 100 mg/kg, 1st day",52%
same,"% of avoidance reactions, group I",[5]; [11],69%
same,"% of avoidance reactions, group II",[5]; [11],80%
same,"% of avoidance reactions, group III",[5]; [11],82%
same,"% of avoidance reactions, group IV",[5]; [11],79%
same,"% of avoidance reactions, group V",[5]; [11],78%
same,"% of avoidance reactions, group VI",[5]; [11],78%
same,effect on the functional symmetry of the brain and activity of the dominating hemisphere,patients; experimental and clinical studies,no such effect
same,character of recovery (in words),patients; patients,uniform regression of all available disorders

# From patent US4735953A, “Pharmaceutical preparation for learning stimulation and memory improvement” (priority 1986, dated 1988)
